Reference: patent publication US10000471B2, “Pyrazole P38 map kinase inhibitors” (Respivert Limited, priority 2010, dated 2018)

Legend:
[1] = target: T1, p38 MAPKα isoform (MAPK14) (Homo sapiens, UniProt Q16539); experiment: Enzyme inhibition assay (FRET, Z-LYTE), p38 MAPKα via MAPKAP-K2 activation; type: biochemical; conditions: read-out: Enzyme Inhibition IC50 p38α
T1 construct: purchased Invitrogen
Protocol: (§1) The enzyme inhibitory activities of compounds disclosed herein were determined by fluorescence resonance energy transfer (FRET) using synthetic peptides labelled with both donor and acceptor fluorophores (Z-LYTE, Invitrogen Ltd., Paisley, UK). Recombinant, phosphorylated p38 MAPKγ (MAPK12:Invitrogen) was diluted in HEPES buffer, mixed with the test compound at the desired final concentrations and incubated for 2 hr at RT. The FRET peptide (2 μM) and ATP (100 μM) were added to the enzyme/compound mixture and incubated for 1 hr. Development reagent (protease) was added for 1 hr prior to detection in a fluorescence microplate reader (Varioskan® Flash, ThermoFisher Scientific). The site-specific protease cleaves non-phosphorylated peptide only and eliminates the FRET signal. Phosphorylation levels of each reaction were calculated using the ratio of coumarin emission (donor) over fluorescein emission (acceptor) for which high ratios indicate high phosphorylation and low ratios indicate low phosphorylation levels. The percentage inhibition of each reaction was calculated relative to non-inhibited control and the 50% inhibitory concentration (IC50 value) then calculated from the concentration-response curve.
For the p38 MAPKα isoform (MAPK14: Invitrogen), enzyme activity was evaluated indirectly by determining the level of activation/phosphorylation of the down-stream molecule, MAPKAP-K2. The p38 MAPKα protein was mixed with the test compound for 2 hr at RT. […] Development reagent was then added and the mixture incubated for 1 hr before detection by fluorescence completed the assay protocol.

[2] = tested on: TNFα release in THP-1 cells; experiment: LPS-induced TNFα release in THP-1 cells; type: cell-based, human; conditions: Homo sapiens
Protocol: LPS-Induced TNFα Release in THP-1 Cells
THP-1 cells, a human monocytic cell line, were stimulated with 3 μg/mL of LPS (from E. Coli; 0111:B4, Sigma) for 4 hr and the supernatant collected for determination of the TNFα concentration by sandwich ELISA (Duo-set, R&D systems). The inhibition of TNFα production was calculated at each concentration by comparison with vehicle control. The 50% inhibitory concentration (IC50) was determined from the resultant concentration-response curve.

[3] = tested on: ICAM-1 induction in BEAS2B cells; experiment: Poly I:C-induced ICAM-1 induction in BEAS2B cells; type: cell-based, human; conditions: Homo sapiens, BEAS-2B, read-out: PolyIC/ICAM1 IC50 BEAS2B
Protocol: Poly I:C-Induced ICAM-1 Induction in BEAS2B Cells
Poly I:C (1 μg/mL) (Invivogene Ltd., San Diego, Calif.) was transfected into BEAS2B cells (human bronchial epithelial cells, ATCC) with Oligofectamine (Invitrogen, Carlsbad, Calif.). Cells were pre-incubated with final concentrations of test compounds for 2 hr and the level of ICAM1 expression on the cell surface was determined by cell-based ELISA. At a time point 18 hr after poly I:C transfection, cells were fixed with 4% formaldehyde in PBS and then endogenous peroxidase was quenched by the addition of 0.1% sodium azide and 1% hydrogen peroxide. Cells were washed with wash-buffer (0.1% Tween in PBS: PBS-Tween). and after blocking the wells with 5% milk in PBS-Tween for 1 hr, the cells were incubated with anti-human ICAM-1 antibody (Cell Signaling Technology, Danvers, Mass.) in 1% BSA PBS overnight at 4° C. The cells were washed with PBS-Tween and incubated with the secondary antibody (HRP-conjugated anti-rabbit IgG, Dako Ltd., Glostrup, Denmark). The ICAM-1 signal was detected by adding substrate and reading the absorbance at 450 nm against a reference wavelength of 655 nm using a spectrophotometer. The cells were then washed with PBS-Tween and total cell numbers in each well were determined by reading absorbance at 595 nm after Crystal Violet staining and elution by 1% SDS solution. The measured OD 450-655 readings were corrected for cell number by dividing with the OD595 reading in each well. The inhibition of ICAM-1 expression was calculated at each concentration of test compound by comparison with vehicle control. The 50% inhibitory concentration (IC50) was determined from the resultant concentration-response curve.

[4] = tested on: Differentiated U937 cells; experiment: Cell viability MTT assay; type: cell-based, human; conditions: negative = apparent increase in viability; for MTT Assay (Viability) 4 h d-U937, percentage loss of cell viability: 4 hr in 5% FCS; for MTT Assay (Viability) 24 h d-U937, percentage loss of cell viability: 24 h in 10% FCS
Protocol: Differentiated U937 cells were pre-incubated with each test compound under two protocols: the first for 4 hr in 5% FCS and the second in 10% FCS for 24 h. The supernatant was replaced with 200 μL of new media and 10 μL of MTT stock solution (5 mg/mL) was added to each well. After incubation for 1 hr the media were removed, 200 μL of DMSO was added to each well and the plates were shaken lightly for 1 hr prior to reading the absorbance at 550 nm. The percentage loss of cell viability was calculated for each well relative to vehicle (0.5% DMSO) treatment. Consequently an apparent increase in cell viability for drug treatment relative to vehicle is tabulated as a negative percentage.

[5] = tested on: IL-8 release in d-U937 cells; experiment: LPS-induced IL-8 release in d-U937 cells; type: cell-based, human; conditions: Homo sapiens, dU937
Protocol: (§2) LPS-Induced TNFα/IL-8 Release in d-U937 Cells
(§3) U937 cells, a human monocytic cell line, were differentiated to macrophage-type cells by incubation with phorbol myristate acetate (PMA; 100 ng/ml) for 48 to 72 hr. Cells were pre-incubated with final concentrations of test compound for 2 hr and were then stimulated with 0.1 μg/mL of LPS (from E. Coli: O111:B4, Sigma) for 4 hr. The supernatant was collected for determination of TNFα and IL-8 concentrations by sandwich ELISA (Duo-set, R&D systems). The inhibition of TNFα production was calculated as a percentage of that achieved by 10 μg/mL of BIRB796 at each concentration of test compound by comparison against vehicle control. The relative 50% effective concentration (REC50) was determined from the resultant concentration-response curve. The inhibition of IL-8 production was calculated at each concentration of test compound by comparison with vehicle control. The 50% inhibitory concentration (IC50) was determined from the resultant concentration-response curve.

[6] = tested on: TNFα release in d-U937 cells; experiment: LPS-induced TNFα release in d-U937 cells; type: cell-based, human; conditions: Homo sapiens, dU937, relative to 10 μg/mL BIRB796, read-out: LPS/TNFα REC50 d-U937
Protocol: as §2, §3

p38 MAPKγ (MAPK12) = target: T2, p38 MAPKγ (MAPK12) (Homo sapiens, UniProt P53778); experiment: Enzyme inhibition assay (FRET, Z-LYTE), p38 MAPKγ; type: biochemical; conditions: read-out: Enzyme Inhibition IC50 p38γ
T2 construct: purchased Invitrogen
T2 sequence (P53778 1-367): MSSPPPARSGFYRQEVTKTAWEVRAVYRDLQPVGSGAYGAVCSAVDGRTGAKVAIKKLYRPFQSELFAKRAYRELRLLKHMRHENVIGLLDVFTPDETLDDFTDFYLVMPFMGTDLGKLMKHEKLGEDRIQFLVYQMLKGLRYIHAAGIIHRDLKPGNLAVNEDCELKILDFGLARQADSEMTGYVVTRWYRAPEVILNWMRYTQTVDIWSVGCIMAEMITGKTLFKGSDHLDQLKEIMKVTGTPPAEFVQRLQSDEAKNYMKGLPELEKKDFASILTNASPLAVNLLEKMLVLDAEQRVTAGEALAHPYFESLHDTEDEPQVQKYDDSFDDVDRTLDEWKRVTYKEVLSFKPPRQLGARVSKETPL
Protocol: as §1

T1 sequence (Q16539 whole entry, canonical isoform): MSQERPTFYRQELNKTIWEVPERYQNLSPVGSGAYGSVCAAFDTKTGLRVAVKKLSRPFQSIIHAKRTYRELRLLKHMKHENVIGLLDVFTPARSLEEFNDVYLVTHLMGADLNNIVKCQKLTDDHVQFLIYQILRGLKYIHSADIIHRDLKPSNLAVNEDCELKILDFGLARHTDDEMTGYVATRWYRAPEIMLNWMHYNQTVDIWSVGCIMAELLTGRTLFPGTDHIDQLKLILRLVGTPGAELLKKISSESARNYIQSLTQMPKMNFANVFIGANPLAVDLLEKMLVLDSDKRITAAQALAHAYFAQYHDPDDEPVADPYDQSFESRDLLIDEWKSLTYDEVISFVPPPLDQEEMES

COCC(=O)Nc1cc(Oc2ccc(NC(=O)Nc3cc(C(C)(C)C)nn3-c3ccc(C)cc3)c(F)c2)ccn1 [Example 1, N-(4-(4-(3-(3-tert-Butyl-1-p-tolyl-1H-pyrazol-5-yl)ureido)-3-fluorophenoxy)pyridin-2-yl)-2-methoxyacetamide]
IC50 [1]: 105 nM | IC50 [2]: 0.9 nM | IC50 [3]: 8.8 nM | MTT Assay (Viability) 4 h d-U937, percentage loss of cell viability [4]: 1.7% | MTT Assay (Viability) 24 h d-U937, percentage loss of cell viability [4]: 76.1% | IC50 [5]: 9.6 nM | EC50 [6]: 2.3 nM | IC50 (p38 MAPKγ (MAPK12)): 40.5 nM

COCC(=O)Nc1cc(Oc2ccc(NC(=O)Nc3cc(C(C)(C)C)nn3-c3ccc(C)cc3)c(S(C)(=O)=O)c2)ccn1 [Example 2, N-(4-(4-(3-(3-tert-Butyl-1-p-tolyl-1H-pyrazol-5-yl)ureido)-3-(methylsulfonyl)phenoxy)pyridin-2-yl)-2-methoxyacetamide]
IC50 [1]: 37.7 nM | IC50 [2]: 5.3 nM | IC50 [3]: 427 nM | MTT Assay (Viability) 4 h d-U937, percentage loss of cell viability [4]: −3.1% | MTT Assay (Viability) 24 h d-U937, percentage loss of cell viability [4]: 32.7% | IC50 [5]: 174 nM | EC50 [6]: 29.4 nM | IC50 (p38 MAPKγ (MAPK12)): 366 nM

COCC(=O)Nc1cc(Oc2ccc(NC(=O)Nc3cc(C(C)(C)C)nn3-c3ccc(C)cc3)c(C(F)(F)F)c2)ccn1 [Example 3, N-(4-(4-(3-(3-tert-Butyl-1-p-tolyl-1H-pyrazol-5-yl)ureido)-3-(trifluoromethyl)phenoxy)pyridin-2-yl)-2-methoxyacetamide]
IC50 [1]: 5.1 nM | IC50 [2]: 1 nM | IC50 [3]: 24.4 nM | MTT Assay (Viability) 4 h d-U937, percentage loss of cell viability [4]: 3.4% | MTT Assay (Viability) 24 h d-U937, percentage loss of cell viability [4]: 22.9% | IC50 [5]: 41.2 nM | EC50 [6]: 1.1 nM | IC50 (p38 MAPKγ (MAPK12)): 175 nM

COCC(=O)Nc1cc(Oc2ccc(NC(=O)Nc3cc(C(C)(C)C)nn3-c3ccc(C)cc3)c(Cl)c2C#N)ccn1 [Example 4, N-(4-(4-(3-(3-tert-Butyl-1-p-tolyl-1H-pyrazol-5-yl)ureido)-3-chloro-2-cyanophenoxy)pyridin-2-yl)-2-methoxyacetamide]
IC50 [1]: 4.5 nM | IC50 [2]: 0.2 nM | IC50 [3]: 1.1 nM | MTT Assay (Viability) 4 h d-U937, percentage loss of cell viability [4]: −24.1% | MTT Assay (Viability) 24 h d-U937, percentage loss of cell viability [4]: 64.5% | IC50 [5]: 0.1 nM | EC50 [6]: 0.1 nM | IC50 (p38 MAPKγ (MAPK12)): 238 nM

COCC(=O)Nc1cc(Oc2ccc(NC(=O)Nc3cc(C(C)(C)C)nn3-c3ccc(C)cc3)c3c2CCCC3)ccn1 [Example 5, N-(4-(4-(3-(3-tert-Butyl-1-p-tolyl-1H-pyrazol-5-yl)ureido)-5,6,7,8-tetrahydronaphthalen-1-yloxy)pyridin-2-yl)-2-methoxyacetamide]
IC50 [1]: 18.7 nM | IC50 [2]: 1.4 nM | IC50 [3]: 21.9 nM | MTT Assay (Viability) 4 h d-U937, percentage loss of cell viability [4]: −3.5% | MTT Assay (Viability) 24 h d-U937, percentage loss of cell viability [4]: 18.7% | IC50 [5]: 50.6 nM | EC50 [6]: 0.4 nM | IC50 (p38 MAPKγ (MAPK12)): 1360 nM

COCC(=O)Nc1cc(Oc2ccc(NC(=O)Nc3cc(C(C)(C)C)nn3-c3ccc(C)cc3)c3cccnc23)ccn1 [Example 6, N-(4-(5-(3-(3-tert-butyl-1-p-tolyl-1H-pyrazol-5-yl)ureido)quinolin-8-yloxy)pyridin-2-yl)-2-methoxyacetamide]
IC50 [1]: 6.7 nM | IC50 [2]: 1.6 nM | IC50 [3]: 7.2 nM | MTT Assay (Viability) 4 h d-U937, percentage loss of cell viability [4]: −21.3% | MTT Assay (Viability) 24 h d-U937, percentage loss of cell viability [4]: −14.6% | IC50 [5]: 3.9 nM | EC50 [6]: 0.1 nM | IC50 (p38 MAPKγ (MAPK12)): 57.9 nM

COCC(=O)Nc1cc(Oc2ccc(NC(=O)Nc3cc(C(C)(C)C)nn3-c3ccc(C)cc3)c3[nH]ncc23)ccn1 [Example 7, N-(4-(7-(3-(3-tert-Butyl-1-p-tolyl-1H-pyrazol-5-yl)ureido)-1H-indazol-4-yloxy)pyridin-2-yl)-2-methoxyacetamide]
IC50 [1]: 1.3 nM | IC50 [2]: 111 nM | IC50 [3]: 150 nM | MTT Assay (Viability) 4 h d-U937, percentage loss of cell viability [4]: −2.0% | MTT Assay (Viability) 24 h d-U937, percentage loss of cell viability [4]: 64.5% | IC50 [5]: 124 nM | EC50 [6]: 112 nM | IC50 (p38 MAPKγ (MAPK12)): 36.6 nM

CNCC(=O)Nc1cc(Oc2ccc(NC(=O)Nc3cc(C(C)(C)C)nn3-c3ccc(CO)cc3)c(Cl)c2Cl)ccn1 [Example 8, N-(4-(4-(3-(3-tert-Butyl-1-(4-(hydroxymethyl)phenyl)-1H-pyrazol-5-yl)ureido)-2,3-dichlorophenoxy)pyridin-2-yl)-2-(methylamino)acetamide]
IC50 [1]: 7.6 nM | IC50 [2]: 0.5 nM | IC50 [3]: 2.4 nM | MTT Assay (Viability) 4 h d-U937, percentage loss of cell viability [4]: −7.0% | MTT Assay (Viability) 24 h d-U937, percentage loss of cell viability [4]: 85.6% | IC50 [5]: 4.7 nM | EC50 [6]: 0.9 nM | IC50 (p38 MAPKγ (MAPK12)): 17.2 nM

CSc1ccc(-n2nc(C(C)(C)C)cc2NC(=O)Nc2ccc(Oc3ccnc(NC(=O)N4CCCC4)c3)c(Cl)c2Cl)cc1 [Example 10, N-(4-(4-(3-(3-tert-Butyl-1-(4-(methylthio)phenyl)-1H-pyrazol-5-yl)ureido)-2,3-dichlorophenoxy)pyridin-2-yl)pyrrolidine-1-carboxamide]
IC50 [1]: 36.7 nM | IC50 [2]: 0.4 nM | IC50 [3]: 1.7 nM | MTT Assay (Viability) 4 h d-U937, percentage loss of cell viability [4]: −18.7% | MTT Assay (Viability) 24 h d-U937, percentage loss of cell viability [4]: 17.0% | IC50 [5]: 1.2 nM | EC50 [6]: 0.8 nM | IC50 (p38 MAPKγ (MAPK12)): 184 nM
